Results published in the NIST ThermoML archive (doi:10.1016/j.fluid.2014.04.018).
Values joined by “and” are separate entries in the source; they are usually repeats but may differ in a detail not shown here. Equal values may be shown once.

Details: Liquid, Vibrating tube method

CCCCC(CC)COC(=O)CCCCC(=O)OCC(CC)CCCC (stereo not given) [bis(2-ethylhexyl) adipate]
Details	mass density
293.15 K, 100 kPa	925.4 kg/m3
293.15 K, 2510 kPa	926.9 kg/m3
293.15 K, 5000 kPa	928.4 kg/m3 and 928.3 kg/m3
293.15 K, 5010 kPa	928.4 kg/m3
293.15 K, 7550 kPa	929.9 kg/m3
293.15 K, 10010 kPa	931.3 kg/m3
293.15 K, 10020 kPa	931.3 kg/m3
293.15 K, 15040 kPa	934.2 kg/m3
293.15 K, 20020 kPa	937 kg/m3
293.15 K, 30030 kPa	942.4 kg/m3
293.15 K, 40010 kPa	947.4 kg/m3
293.15 K, 40020 kPa	947.4 kg/m3
293.15 K, 50020 kPa	952.3 kg/m3
293.15 K, 68030 kPa	960.4 kg/m3 and 960.3 kg/m3
313.15 K, 100 kPa	910.3 kg/m3
313.15 K, 2530 kPa	911.9 kg/m3
313.15 K, 2540 kPa	911.9 kg/m3
313.15 K, 5020 kPa	913.5 kg/m3
313.15 K, 7540 kPa	915.2 kg/m3
313.15 K, 10010 kPa	916.7 kg/m3
313.15 K, 15010 kPa	919.8 kg/m3
313.15 K, 20000 kPa	922.8 kg/m3
313.15 K, 30030 kPa	928.7 kg/m3
313.15 K, 40020 kPa	934.1 kg/m3
313.15 K, 50010 kPa	939.3 kg/m3
313.15 K, 68050 kPa	947.9 kg/m3
333.15 K, 100 kPa	895.3 kg/m3
333.15 K, 2500 kPa	897.1 kg/m3
333.15 K, 5000 kPa	898.8 kg/m3
333.15 K, 7480 kPa	900.6 kg/m3
333.15 K, 9990 kPa	902.3 kg/m3
333.15 K, 14990 kPa	905.7 kg/m3
333.15 K, 19970 kPa	908.9 kg/m3
333.15 K, 30010 kPa	915.2 kg/m3
333.15 K, 39990 kPa	921 kg/m3
333.15 K, 50020 kPa	926.6 kg/m3
333.15 K, 68010 kPa	935.8 kg/m3
353.15 K, 100 kPa	880.4 kg/m3
353.15 K, 2500 kPa	882.3 kg/m3
353.15 K, 2510 kPa	882.3 kg/m3
353.15 K, 5000 kPa	884.2 kg/m3
353.15 K, 7510 kPa	886.1 kg/m3
353.15 K, 10000 kPa	888 kg/m3
353.15 K, 15010 kPa	891.7 kg/m3
353.15 K, 20020 kPa	895.2 kg/m3
353.15 K, 30030 kPa	902 kg/m3
353.15 K, 40020 kPa	908.2 kg/m3
353.15 K, 50010 kPa	914.1 kg/m3
353.15 K, 68010 kPa	923.9 kg/m3
373.15 K, 100 kPa	865.4 kg/m3
373.15 K, 2510 kPa	867.5 kg/m3
373.15 K, 5020 kPa	869.7 kg/m3
373.15 K, 7510 kPa	871.7 kg/m3
373.15 K, 10010 kPa	873.8 kg/m3
373.15 K, 14990 kPa	877.8 kg/m3
373.15 K, 20000 kPa	881.6 kg/m3
373.15 K, 30010 kPa	888.9 kg/m3
373.15 K, 40000 kPa	895.6 kg/m3
373.15 K, 50010 kPa	901.9 kg/m3
373.15 K, 68000 kPa	912.3 kg/m3

CCCCOC(=O)CCCCC(=O)OCCCC [dibutyl hexanedioate]
Details	mass density [kg/m3]
293.15 K, 100 kPa	960.6
293.15 K, 2510 kPa	962.2
293.15 K, 4990 kPa	963.7
293.15 K, 5000 kPa	963.7
293.15 K, 7510 kPa	965.3
293.15 K, 9990 kPa	966.9
293.15 K, 10000 kPa	966.9
293.15 K, 15010 kPa	969.9
293.15 K, 20000 kPa	972.9
293.15 K, 29990 kPa	978.6
293.15 K, 39800 kPa	983.9
293.15 K, 39860 kPa	983.8
293.15 K, 50020 kPa	989.1
293.15 K, 68080 kPa	997.3
293.15 K, 68090 kPa	997.7
313.15 K, 100 kPa	943.7
313.15 K, 2500 kPa	945.4
313.15 K, 5020 kPa	947.2
313.15 K, 7510 kPa	948.9
313.15 K, 9990 kPa	950.5
313.15 K, 15000 kPa	953.9
313.15 K, 20000 kPa	957.1
313.15 K, 30010 kPa	963.3
313.15 K, 39810 kPa	969
313.15 K, 50000 kPa	974.6
313.15 K, 67990 kPa	983.8
333.15 K, 100 kPa	926.8
333.15 K, 2500 kPa	928.7
333.15 K, 5010 kPa	930.6
333.15 K, 7520 kPa	932.5
333.15 K, 10010 kPa	934.3
333.15 K, 15040 kPa	938
333.15 K, 20000 kPa	941.4
333.15 K, 30030 kPa	948.2
333.15 K, 39800 kPa	954.3
333.15 K, 50030 kPa	960.4
333.15 K, 68030 kPa	970.2
353.15 K, 100 kPa	909.9
353.15 K, 2510 kPa	912
353.15 K, 5000 kPa	914.1
353.15 K, 7530 kPa	916.2
353.15 K, 10010 kPa	918.2
353.15 K, 15000 kPa	922.2
353.15 K, 20000 kPa	926
353.15 K, 30010 kPa	933.3
353.15 K, 39840 kPa	939.9
353.15 K, 49990 kPa	946.4
353.15 K, 67990 kPa	956.9
373.15 K, 100 kPa	893
373.15 K, 2490 kPa	895.3
373.15 K, 2500 kPa	895.3
373.15 K, 5020 kPa	897.6
373.15 K, 7510 kPa	899.9
373.15 K, 10010 kPa	902.1
373.15 K, 15010 kPa	906.5
373.15 K, 19980 kPa	910.6
373.15 K, 30010 kPa	918.5
373.15 K, 39810 kPa	925.7
373.15 K, 50000 kPa	932.6
373.15 K, 68010 kPa	943.8
